From PubChem BioAssay AID248 (DTP/NCI, 2004) come the findings set out here.

This experiment relates to L1210 leukemia ip in BDF1 mice, survival T/C. Briefly: NCI In Vivo Anticancer Drug Screen. Data for tumor model L1210 Leukemia (intraperitoneal) in B6D2F1 (BDF1) mice. To be noted: endpoint: mean survival time, higher = longer survival. In outline:
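Tumor cells were implanted, animals were treated, and survival was followed. The result divides the treated measurement by the vehicle-control measurement.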

The mark [1] stands for this setting: dose: 100.0 mg/kg/injection, schedule: Q01DX001 (ip), vehicle: saline.
[2] abbreviates: dose: 200.0 mg/kg/injection, schedule: Q01DX001 (ip), vehicle: saline.
The mark [3] stands for this setting: dose: 200.0 mg/kg/injection, schedule: Q01DX001 (ip), vehicle: carboxymethylcellulose (CMC).
Where [4] appears, read: dose: 400.0 mg/kg/injection, schedule: Q01DX001 (ip), vehicle: carboxymethylcellulose (CMC).
The mark [5] stands for this setting: dose: 100.0 mg/kg/injection, schedule: Q01DX009 (ip), vehicle: Klucel (hydroxypropylcellulose) (HPC).

“And” between values parts separate entries of the source, which are not always exact repeats. Identical values can stand only once. Inconclusive results and toxic doses are left out.

Consider `CC(C)(SCc1ccc([N+](=O)[O-])cc1)C(N)C(=O)O` (centres undefined), for which the T/C runs as follows: (dose: 100.0 mg/kg/injection, schedule: Q04DX003 (ip), vehicle: Klucel (hydroxypropylcellulose) (HPC)) 101 % of control; (dose: 200.0 mg/kg/injection, schedule: Q04DX003 (ip), vehicle: Klucel (hydroxypropylcellulose) (HPC)) 100 % of control; (dose: 400.0 mg/kg/injection, schedule: Q04DX003 (ip), vehicle: Klucel (hydroxypropylcellulose) (HPC)) 91 % of control.

On to `CSc1nc(SC)c2c(ncn2C2OC(CO)C(O)C2O)n1` (centres undefined), for which the T/C by setting is: (dose: 50.0 mg/kg/injection, schedule: Q01DX001 (ip), vehicle: saline) 111 % of control; under setting [1], 102 % of control; under setting [2], 104 % of control.

Take `CCOC(=O)CCN(CC(C)C)C(=S)Nc1ccccc1`: the T/C (dose: 100.0 mg/kg/injection, schedule: Q01DX Z (ip), vehicle: methylcellulose (MC)) is 93 % of control.

`CCOC(=O)CCC(NC(=O)c1ccc(N(C)C(=O)OCc2ccccc2)cc1)C(=O)OCC` (centres undefined): the T/C was 100 % of control under setting [3] and 94 % of control under setting [4].

For the molecule `CCCCCCCCOC(=O)Nc1ccccc1`, the T/C by setting is: (dose: 25.0 mg/kg/injection, schedule: Q01DX009 (ip), vehicle: Klucel (hydroxypropylcellulose) (HPC)) 100 % of control; (dose: 50.0 mg/kg/injection, schedule: Q01DX009 (ip), vehicle: Klucel (hydroxypropylcellulose) (HPC)) 94 % of control; under setting [5], 100 % of control.

Take `Cc1ccc(S(=O)(=O)Nc2cc(C)cc(CCN)c2C)cc1`: the T/C runs as follows: (dose: 50.0 mg/kg/injection, schedule: Q01DX001 (ip), vehicle: carboxymethylcellulose (CMC)) 98 % of control; (dose: 100.0 mg/kg/injection, schedule: Q01DX001 (ip), vehicle: carboxymethylcellulose (CMC)) 101 % of control; under setting [3], 98 % of control; under setting [4], 93 % of control.

In the case of `N#Cc1ccc(OCCCCCOc2ccc([N+](=O)[O-])cc2)cc1`, the T/C was 101 % of control (dose: 75.0 mg/kg/injection, schedule: Q01DX009 (ip), vehicle: Klucel (hydroxypropylcellulose) (HPC)); 97 % of control (dose: 150.0 mg/kg/injection, schedule: Q01DX009 (ip), vehicle: Klucel (hydroxypropylcellulose) (HPC)); 100 % of control (dose: 300.0 mg/kg/injection, schedule: Q01DX009 (ip), vehicle: Klucel (hydroxypropylcellulose) (HPC)).

In the case of `O=P1(N(CCF)CCF)NCCCO1` (centres undefined), the T/C reads like this: (dose: 2.5 mg/kg/injection, schedule: Q01DX Z (ip), vehicle: saline) 96 % of control; (dose: 5.0 mg/kg/injection, schedule: Q01DX Z (ip), vehicle: saline) 91 % of control; (dose: 10.0 mg/kg/injection, schedule: Q01DX Z (ip), vehicle: other) 93 % of control; (dose: 10.0 mg/kg/injection, schedule: Q01DX Z (ip), vehicle: saline) 115 % of control; (dose: 30.0 mg/kg/injection, schedule: Q01DX Z (ip), vehicle: other) 106 % of control.

Regarding `N#CC(C#N)=Cc1c(Cl)cccc1Cl`, the T/C is 96 % of control (dose: 6.25 mg/kg/injection, schedule: Q01DX001 (ip), vehicle: Klucel (hydroxypropylcellulose) (HPC)); 94 % of control (dose: 6.25 mg/kg/injection, schedule: Q04DX003 (ip), vehicle: Klucel (hydroxypropylcellulose) (HPC)); 103 % of control (dose: 12.5 mg/kg/injection, schedule: Q01DX001 (ip), vehicle: Klucel (hydroxypropylcellulose) (HPC)); 114 % of control (dose: 12.5 mg/kg/injection, schedule: Q04DX003 (ip), vehicle: Klucel (hydroxypropylcellulose) (HPC)); 96 % of control and 109 % of control (dose: 25.0 mg/kg/injection, schedule: Q01DX001 (ip), vehicle: Klucel (hydroxypropylcellulose) (HPC)); 97 % of control (dose: 25.0 mg/kg/injection, schedule: Q04DX003 (ip), vehicle: Klucel (hydroxypropylcellulose) (HPC)). The T/C (dose: 100.0 mg/kg/injection, schedule: Q01DX001 (ip), vehicle: Klucel (hydroxypropylcellulose) (HPC)) is 105 % of control.

As for `CC(=O)C[n+]1ccccc1`, the T/C under setting [1] is 106 % of control and 97 % of control; the T/C (dose: 100.0 mg/kg/injection, schedule: Q01DX009 (ip), vehicle: acetone) was 96 % of control; the T/C under setting [2] was 100 % of control and 95 % of control; the T/C (dose: 200.0 mg/kg/injection, schedule: Q01DX009 (ip), vehicle: acetone) is 105 % of control; the T/C (dose: 400.0 mg/kg/injection, schedule: Q01DX001 (ip), vehicle: saline) was 89 % of control and 97 % of control; the T/C (dose: 400.0 mg/kg/injection, schedule: Q01DX009 (ip), vehicle: acetone) was 89 % of control.

As to `C/C=C/[N+]([O-])=NC(C)CCCCCC` (centres undefined), the T/C runs as follows: (dose: 100.0 mg/kg/injection, schedule: Q04DX002 (ip), vehicle: saline) 105 % of control; (dose: 200.0 mg/kg/injection, schedule: Q04DX002 (ip), vehicle: saline) 97 % of control; (dose: 400.0 mg/kg/injection, schedule: Q04DX002 (ip), vehicle: saline) 94 % of control.

As to `CCOC(=O)C(CC)(OC(C)=O)C(=O)C(O)C1c2nc3ccccc3cc2CN1C(=O)CCOCc1ccccc1` (centres undefined), the T/C was 99 % of control (dose: 10.0 mg/kg/injection, schedule: Q07DX002 (ip), vehicle: alcohol); 101 % of control (dose: 20.0 mg/kg/injection, schedule: Q07DX002 (ip), vehicle: alcohol); 106 % of control (dose: 40.0 mg/kg/injection, schedule: Q07DX002 (ip), vehicle: alcohol); 94 % of control (dose: 80.0 mg/kg/injection, schedule: Q07DX002 (ip), vehicle: alcohol).

Regarding `CCSc1c(Cl)c(Cl)c(Cl)c(Cl)c1Cl`, the T/C was 97 % of control under setting [5]; 100 % of control (dose: 200.0 mg/kg/injection, schedule: Q01DX009 (ip), vehicle: Klucel (hydroxypropylcellulose) (HPC)); 87 % of control (dose: 400.0 mg/kg/injection, schedule: Q01DX009 (ip), vehicle: Klucel (hydroxypropylcellulose) (HPC)).

Consider `CCOC(=O)c1ccc(S(=O)(=O)NCCCc2c(C)nc(N)[nH]c2=O)cc1`, for which the T/C runs as follows: (dose: 12.5 mg/kg/injection, schedule: Q01DX001 (ip), vehicle: saline with Tween-80) 90 % of control; (dose: 25.0 mg/kg/injection, schedule: Q01DX001 (ip), vehicle: saline with Tween-80) 103 % of control; (dose: 50.0 mg/kg/injection, schedule: Q01DX001 (ip), vehicle: saline with Tween-80) 90 % of control.

In the case of `CC1(C)N=C(N)N=C(N)N1c1cccc(C#N)c1`, the T/C is 118 % of control (dose: 7.0 mg/kg/injection, schedule: Q01DX009 (ip), vehicle: saline); 116 % of control (dose: 10.0 mg/kg/injection, schedule: Q01DX009 (ip), vehicle: saline); 113 % of control (dose: 16.0 mg/kg/injection, schedule: Q01DX009 (ip), vehicle: saline); 108 % of control (dose: 17.0 mg/kg/injection, schedule: Q01DX009 (ip), vehicle: saline); 123 % of control (dose: 25.0 mg/kg/injection, schedule: Q01DX009 (ip), vehicle: saline); 151 % of control and 161 % of control (dose: 37.0 mg/kg/injection, schedule: Q01DX009 (ip), vehicle: saline). The T/C is 120 % of control (dose: 37.5 mg/kg/injection, schedule: Q01DX009 (ip), vehicle: saline); 172 % of control (dose: 56.0 mg/kg/injection, schedule: Q01DX009 (ip), vehicle: saline); 150 % of control (dose: 84.5 mg/kg/injection, schedule: Q01DX009 (ip), vehicle: saline).

Consider `[N-]=[N+]=Nc1cnn(-c2ccccc2)c(=O)c1Cl`, for which the T/C runs as follows: (dose: 18.75 mg/kg/injection, schedule: Q01DX009 (ip), vehicle: saline with Tween-80) 105 % of control; (dose: 37.5 mg/kg/injection, schedule: Q01DX009 (ip), vehicle: saline with Tween-80) 92 % of control; (dose: 75.0 mg/kg/injection, schedule: Q01DX009 (ip), vehicle: saline with Tween-80) 101 % of control.

With `c1ccc(COP(c2ccccc2)c2ccccc2)cc1`, the T/C reads like this: (dose: 25.6 mg/kg/injection, schedule: Q04DX002 (ip), vehicle: saline with Tween-80) 100 % of control; (dose: 64.0 mg/kg/injection, schedule: Q04DX002 (ip), vehicle: saline with Tween-80) 96 % of control; (dose: 160.0 mg/kg/injection, schedule: Q04DX002 (ip), vehicle: saline with Tween-80) 100 % of control; (dose: 400.0 mg/kg/injection, schedule: Q04DX002 (ip), vehicle: saline with Tween-80) 100 % of control.

Consider `CCCOC(=O)COc1ccccc1`, for which the T/C (dose: 100.0 mg/kg/injection, schedule: Q04DX003 (ip), vehicle: saline with Tween-80) is 96 % of control; the T/C (dose: 200.0 mg/kg/injection, schedule: Q04DX003 (ip), vehicle: saline with Tween-80) was 96 % of control; the T/C (dose: 400.0 mg/kg/injection, schedule: Q04DX003 (ip), vehicle: saline with Tween-80) is 93 % of control.
